Results: patent US20070128217A1 (priority 2003, published 2007)

How the values were obtained:
[1] = tested on: recombinant human anti-SARS-CoV antibody 03-018; format: binding; parameters: Binding of antibody 03-018 to linear peptides of the N protein of SARS-CoV Urbani / Binding of antibody 03-018 to looped/cyclic peptides of the N protein of SARS-CoV Urbani: unit not given here
[2] = tested on: control sera (pooled serum of ten healthy LUMC hospital workers; commercial negative donor pooled serum from the Dutch bloodbank); format: binding, human; parameters: Binding of Control serum LUMC to linear peptides / Binding of Control serum Blood-bank to linear peptides / Binding of Control serum LUMC to looped peptides / Binding of Control Serum Blood-Bank to Looped peptides / Binding of Control serum LUMC to linear peptides of the protein M of SARS-CoV Urbani / Binding of Control serum Blood-bank to linear peptides of the protein M of SARS-CoV Urbani / Binding of Control serum LUMC to looped peptides of the protein M of SARS-CoV Urbani / Binding of Control Serum Blood-Bank to Looped peptides of the protein M of SARS-CoV Urbani: unit not given here
[3] = tested on: antibodies in sera from SARS patients (sera 1a, 1b, 2, 6, 37, 62, London, SARS-yellow, SARS-green); format: binding, human; parameters: Binding of serum 6 to linear peptides of protein X1 of SARS-CoV Urbani / Binding of serum 37 to linear peptides of protein X1 of SARS-CoV Urbani / Binding of serum 6 to looped/cyclic peptide (PEPSCAN-ELISA) / Binding of serum 37 to looped/cyclic peptide (PEPSCAN-ELISA) / Binding of serum 37 to looped/cyclic peptides of protein X1 of SARS-CoV Urbani / Binding of serum 6 to linear peptides of protein X2 / Binding of serum 37 to linear peptides of protein X2 / Binding of serum 37 to looped/cyclic peptides of protein X2 of SARS-CoV Urbani / Binding of serum 6 to linear peptides of protein M of SARS-CoV Urbani / Binding of serum 37 to linear peptides of protein M of SARS-CoV Urbani / Binding of serum 6 to looped/cyclic peptides of protein M of SARS-CoV Urbani / Binding of serum 37 to looped/cyclic peptides of protein M of SARS-CoV Urbani / Binding of serum 6 to linear peptides of protein X3 of SARS-CoV Urbani / Binding of serum 37 to linear peptides of protein X3 of SARS-CoV Urbani / Binding of serum 37 to looped/cyclic peptides of protein X3 of SARS-CoV Urbani / Binding of serum 6 to linear peptides of protein X4 of SARS-CoV Urbani / Binding of serum 37 to linear peptides of protein X4 of SARS-CoV Urbani / Binding of serum 37 to looped/cyclic peptides of protein X4 of SARS-CoV Urbani / Binding of serum 6 to linear peptides of protein X5 of SARS-CoV Urbani / Binding of serum 37 to linear peptides of protein X5 of SARS-CoV Urbani / Binding of serum 37 to looped/cyclic peptides of protein X5 of SARS-CoV Urbani / Binding of serum 6 to linear peptides of protein N of SARS-CoV Urbani / Binding of serum 37 to linear peptides of protein N of SARS-CoV Urbani / Binding of serum 6 to linear peptide (PEPSCAN-ELISA) / Binding of serum 1a to looped/cyclic peptides of protein N of SARS-CoV Urbani / Binding of serum 1b to looped/cyclic peptides of protein N of SARS-CoV Urbani / Binding of serum 2 to looped/cyclic peptides of protein N of SARS-CoV Urbani / Binding of serum 6 to looped/cyclic peptides of protein N of SARS-CoV Urbani / Binding of serum 37 to looped/cyclic peptides of protein N of SARS-CoV Urbani / Binding of serum 62 to looped/cyclic peptides of protein N of SARS-CoV Urbani / Binding of serum London to looped/cyclic peptides of protein N of SARS-CoV Urbani / Binding of serum SARS-green to looped/cyclic peptides of protein N of SARS-CoV Urbani: unit not given here
[4] = tested on: rabbit serum obtained by immunizing a rabbit with the SARS-CoV strain Frankfurt 1; format: binding; parameters: Binding of a rabbit serum to linear peptides / Binding of a rabbit serum to looped peptides / Rabbit serum linear peptides / Rabbit serum looped peptides / Binding of a rabbit serum to linear peptides of protein N of SARS-CoV Urbani (Rabbit serum linear peptides) / Binding of a rabbit serum to looped/cyclic peptides of protein N of SARS-CoV Urbani (Rabbit serum looped peptides): unit not given here

Sequence	Binding of antibody 03-018 to linear peptides of the N protein of SARS-CoV Urbani [1]	Binding of antibody 03-018 to looped/cyclic peptides of the N protein of SARS-CoV Urbani [1]	Binding of Control Serum Blood-Bank to Looped peptides [2]	Binding of Control serum Blood-bank to linear peptides [2]	Binding of Control serum LUMC to linear peptides [2]	Binding of Control serum LUMC to looped peptides [2]	Binding of serum 1a to looped/cyclic peptides of protein N of SARS-CoV Urbani [3]	Binding of serum 1b to looped/cyclic peptides of protein N of SARS-CoV Urbani [3]	Binding of serum 2 to looped/cyclic peptides of protein N of SARS-CoV Urbani [3]	Binding of serum 6 to looped/cyclic peptides of protein N of SARS-CoV Urbani [3]	Binding of serum 37 to looped/cyclic peptides of protein N of SARS-CoV Urbani [3]	Binding of serum 62 to looped/cyclic peptides of protein N of SARS-CoV Urbani [3]	Binding of serum London to looped/cyclic peptides of protein N of SARS-CoV Urbani [3]	Binding of serum SARS-green to looped/cyclic peptides of protein N of SARS-CoV Urbani [3]	Binding of serum SARS-yellow to looped/cyclic peptides of protein N of SARS-CoV Urbani [3]	Binding of a rabbit serum to linear peptides of protein N of SARS-CoV Urbani (Rabbit serum linear peptides) [4]	Binding of a rabbit serum to looped/cyclic peptides of protein N of SARS-CoV Urbani (Rabbit serum looped peptides) [4]	Binding of serum 1a to linear peptides of protein N of SARS-CoV Urbani [3]	Binding of serum 1b to linear peptides of protein N of SARS-CoV Urbani [3]	Binding of serum 2 to linear peptides of protein N of SARS-CoV Urbani [3]	other results
LNQLESKVSGKGQQQ	0.1	0.3	0.7	0.8	0.7	0.7	0.4	0.3	0.6	0.4	0.6	0.6	0.5	0.5	0.8	0.2	0.4				Binding of serum 1a to linear peptide (PEPSCAN-ELISA) [3]: 0.3; Binding of serum 1b to linear peptide (PEPSCAN-ELISA) [3]: 0.1; Binding of serum 2 to linear peptide (PEPSCAN-ELISA) [3]: 0.3; Binding of serum 6 to linear peptide (PEPSCAN-ELISA) [3]: 0.2; Binding of serum 37 to linear peptide (PEPSCAN-ELISA) [3]: 0.7; Binding of serum 62 to linear peptide (PEPSCAN-ELISA) [3]: 0.9; Binding of serum London to linear peptide (PEPSCAN-ELISA) [3]: 0.6; Binding of serum SARS-green to linear peptide (PEPSCAN-ELISA) [3]: 0.4; Binding of serum SARS-yellow to linear peptide (PEPSCAN-ELISA) [3]: 0.7
LNTPKDHIGTRNPNN	0.1	0.2	0.5	0.8	0.6	0.6	0.4	0.3	0.4	0.3	0.6	0.5	0.5	0.4	0.4	0.2	0.0	0.2	0.1	0.3	Binding of serum 6 to linear peptides of protein N of SARS-CoV Urbani [3]: 0.2; Binding of serum 37 to linear peptides of protein N of SARS-CoV Urbani [3]: 0.7; Binding of serum 62 to linear peptides of protein N of SARS-CoV Urbani [3]: 0.6; Binding of serum London to linear peptides of protein N of SARS-CoV Urbani [3]: 0.5; Binding of serum SARS-green to linear peptides of protein N of SARS-CoV Urbani [3]: 0.2; Binding of serum SARS-yellow to linear peptides of protein N of SARS-CoV Urbani [3]: 0.6
LPAADMDDFSRQLQN	0.1	0.2					0.3	0.2	0.5	0.4	0.6	0.4	0.3	0.5	0.6	0.2	0.2	0.2	0.2	0.4	Control Serum Blood-Bank Looped peptides [2]: 0.4; Control serum Blood-bank linear peptides [2]: 0.7; Control serum LUMC linear peptides [2]: 0.7; Control serum LUMC looped peptides [2]: 0.4; Binding of serum 6 to linear peptides of protein N of SARS-CoV Urbani [3]: 0.3; Binding of serum 37 to linear peptides of protein N of SARS-CoV Urbani [3]: 0.7; Binding of serum 62 to linear peptides of protein N of SARS-CoV Urbani [3]: 0.6; Binding of serum London to linear peptides of protein N of SARS-CoV Urbani [3]: 0.5; Binding of serum SARS-green to linear peptides of protein N of SARS-CoV Urbani [3]: 0.2; Binding of serum SARS-yellow to linear peptides of protein N of SARS-CoV Urbani [3]: 0.6
